Data on 13 compounds can be found in patent publication US8598365B2, “Herbicides” (Syngenta Limited, priority 2007, dated 2013).

Molecules are shown by their SMILES.

Holding throughout (type): in vivo
Assay [1] deals with Alopecurus myosuroides (ALOMY). Briefly: Example B pre-emergence herbicidal activity. The conditions noted are these: 312 h, rate 250 g/ha, evaluated after 13 days, read-out: Pre-Emergence Activity ALOMY (100=total damage to plant; 0=no damage to plant). How it is done:
(§1) Seeds of a variety of test species were sown in standard soil in pots. After cultivation for one day (pre-emergence) or after 8 days cultivation (post-emergence) under controlled conditions in a glasshouse (at 24/16° C., day/night; 14 hours light; 65% humidity), the plants were sprayed with an aqueous spray solution derived from the formulation of the technical active ingredient in acetone/water (50:50) solution containing 0.5% Tween 20 (polyoxyethelyene sorbitan monolaurate, CAS RN 9005-64-5).
(§2) The test plants were then grown in a glasshouse under controlled conditions in a glasshouse (at 24/16° C., day/night; 14 hours light; 65% humidity) and watered twice daily. After 13 days for pre and post-emergence, the test was evaluated (100=total damage to plant; 0=no damage to plant).
(§3) Alopecurus myosuroides (ALOMY), Avena fatua (AVEFA), Setaria faberi (SETFA), Echinochloa crus-galli (ECHCG), Solanum nigrum (SOLNI) and Amaranthus retoflexus (AMARE)

Assay [2] has as its system Amaranthus retoflexus (AMARE). Briefly: Example B pre-emergence herbicidal activity. The conditions noted are these: Amaranthus retroflexus, 312 h, rate 250 g/ha, evaluated after 13 days, read-out: Pre-Emergence Activity AMARE (100=total damage to plant; 0=no damage to plant). How it is done: as §1, §2, §3
The subject of assay [3] is Avena fatua (AVEFA). Briefly: Example B pre-emergence herbicidal activity. The conditions noted are these: 312 h, rate 250 g/ha, evaluated after 13 days, read-out: Pre-Emergence Activity AVEFA (100=total damage to plant; 0=no damage to plant). How it is done:
as §1, §2, §3

For assay [4], the system named is Echinochloa crus-galli (ECHCG). Briefly: Example B pre-emergence herbicidal activity. The note with it: 312 h, rate 250 g/ha, evaluated after 13 days, read-out: Pre-Emergence Activity ECHCG (100=total damage to plant; 0=no damage to plant). As to the method:
as §1, §2, §3

The test system of assay [5] is Setaria faberi (SETFA). Briefly: Example B pre-emergence herbicidal activity. The note with it: 312 h, rate 250 g/ha, evaluated after 13 days, read-out: Pre-Emergence Activity SETFA (100=total damage to plant; 0=no damage to plant). How it is done: as §1, §2, §3
In assay [6] the test system is Alopecurus myosuroides (ALOMY). Briefly: Example B post-emergence herbicidal activity. The conditions noted are these: 312 h, evaluated after 13 days, read-out: Post-emergence activity ALOMY (100=total damage to plant; 0=no damage to plant); for pest or weed control at 250 g/ha: rate 250 g/ha. How it is done: as §1, §2, §3
The test system of assay [7] is Amaranthus retoflexus (AMARE). Briefly: Example B post-emergence herbicidal activity. The note with it: Amaranthus retroflexus, 312 h, evaluated after 13 days, read-out: Post-emergence activity AMARE (100=total damage to plant; 0=no damage to plant); for pest or weed control at 250 g/ha: rate 250 g/ha. How it is done: as §1, §2, §3
Assay [8] concerns Avena fatua (AVEFA). Briefly: Example B post-emergence herbicidal activity. The conditions noted are these: 312 h, evaluated after 13 days, read-out: Post-emergence activity AVEFA (100=total damage to plant; 0=no damage to plant); for pest or weed control at 250 g/ha: rate 250 g/ha. As to the method:
as §1, §2, §3

For assay [9], the system named is Echinochloa crus-galli (ECHCG). Briefly: Example B post-emergence herbicidal activity. The note with it: 312 h, evaluated after 13 days, read-out: Post-emergence activity ECHCG (100=total damage to plant; 0=no damage to plant); for pest or weed control at 250 g/ha: rate 250 g/ha. As to the method:
as §1, §2, §3

Assay [10] deals with Setaria faberi (SETFA). Briefly: Example B post-emergence herbicidal activity. The conditions noted are these: 312 h, evaluated after 13 days, read-out: Post-emergence activity SETFA (100=total damage to plant; 0=no damage to plant); for pest or weed control at 250 g/ha: rate 250 g/ha. How it is done:
as §1, §2, §3

For the compound `CCc1sc(-c2ccc(Cl)c(Cl)c2)nc1C1C(=O)[C@@H]2CC[C@@H](C2)C1=O` (stereo partly drawn) [Compound T22], the pest or weed control at 250 g/ha in [1] was 70%; in assay [2], 20%; in the assay on Avena fatua (AVEFA) [3], 20%; in [4] it was 80%; in the assay with Setaria faberi (SETFA) [5], 100%; in assay [6], 90%. Besides, the pest or weed control at 250 g/ha in [7] worked out at 0%; with Avena fatua (AVEFA) [8], 90%; in [9], 90%; in the assay with Setaria faberi (SETFA) [10], 90%.

With `COc1ccc(-c2nc(C3C(=O)[C@@H]4CC[C@@H](C4)C3=O)c(C)s2)cc1` (stereo partly drawn) [Compound T58], the pest or weed control at 250 g/ha in [1] is 60%; in assay [2], 0%; in the assay with Avena fatua (AVEFA) [3], 60%; in assay [4], 100%; with Setaria faberi (SETFA) [5] it was 60%; in assay [6] it was 90%. The pest or weed control at 250 g/ha stood at 0% in assay [7], 80% in the assay with Avena fatua (AVEFA) [8], 100% in assay [9] and 100% in the assay with Setaria faberi (SETFA) [10].

Consider `CCc1sc(-c2ccc(SC)cc2)nc1C1C(=O)[C@@H]2CC[C@@H](C2)C1=O` (stereo partly drawn) [Compound T83], for which the pest or weed control at 250 g/ha in [1] worked out at 50%; in assay [2] it was 0%; in the assay with Avena fatua (AVEFA) [3], 0%; in assay [4], 100%; in the assay on Setaria faberi (SETFA) [5] it was 90%; in [6], 60%. The pest or weed control at 250 g/ha in assay [7] was 0%; with Avena fatua (AVEFA) [8], 100%; in assay [9], 100%; with Setaria faberi (SETFA) [10], 100%.

For the compound `Cc1sc(-c2ccccc2)nc1C1C(=O)[C@@H]2CC[C@@H](C2)C1=O` (stereo partly drawn) [Compound T56], the pest or weed control at 250 g/ha amounted to 0% in [1]; 0% in [2]; 0% with Avena fatua (AVEFA) [3]; 40% in [4]; 0% with Setaria faberi (SETFA) [5]; 0% in [6]. Also, the pest or weed control at 250 g/ha in assay [7] was 0%; in the assay on Avena fatua (AVEFA) [8] it was 0%; in assay [9], 60%; in the assay on Setaria faberi (SETFA) [10], 70%.

On to `Cc1sc(-c2ccc(C(C)C)cc2)nc1C1C(=O)[C@@H]2CC[C@@H](C2)C1=O` (stereo partly drawn) [Compound T87], for which the pest or weed control at 250 g/ha in [1] turned out to be 20%; in [2], 20%; in the assay on Avena fatua (AVEFA) [3], 50%; in [4], 60%; in the assay on Setaria faberi (SETFA) [5], 60%; in assay [6], 50%. The pest or weed control at 250 g/ha in assay [7] worked out at 0%; in the assay with Avena fatua (AVEFA) [8] it was 60%; in assay [9] it was 90%; with Setaria faberi (SETFA) [10] it was 90%.

Regarding `CCc1sc(-c2cnc(Cl)cc2C)nc1C1C(=O)[C@@H]2CC[C@@H](C2)C1=O` (stereo partly drawn) [Compound T110], the pest or weed control at 250 g/ha in assay [1] is 30%; in assay [2], 20%; in the assay on Avena fatua (AVEFA) [3] it was 30%; in assay [4], 60%; in the assay with Setaria faberi (SETFA) [5] it was 100%; in assay [6] it was 60%. Also, the pest or weed control at 250 g/ha in assay [7] came out at 0%; in the assay with Avena fatua (AVEFA) [8] it was 70%; in [9] it was 90%; with Setaria faberi (SETFA) [10] it was 100%.

Take `Cc1sc(-c2cccs2)nc1C1C(=O)[C@@H]2CC[C@@H](C2)C1=O` (stereo partly drawn) [Compound T2]: the pest or weed control at 250 g/ha in assay [1] is 0%; in assay [2], 0%; with Avena fatua (AVEFA) [3], 0%; in assay [4] it was 0%; with Setaria faberi (SETFA) [5], 50%; in assay [6], 0%. For the same compound, the pest or weed control at 250 g/ha came out at 0% in assay [7], 0% in the assay on Avena fatua (AVEFA) [8], 30% in [9] and 70% in the assay with Setaria faberi (SETFA) [10].

Consider `COCOc1ccc(-c2nc(C3C(=O)[C@@H]4CC[C@@H](C4)C3=O)c(C)s2)cc1` (stereo partly drawn) [Compound T66], for which the pest or weed control at 250 g/ha came out at 10% in assay [1]; 0% in [2]; 0% in the assay with Avena fatua (AVEFA) [3]; 30% in [4]; 30% in the assay on Setaria faberi (SETFA) [5]; 10% in assay [6]. In addition, the pest or weed control at 250 g/ha turned out to be 0% in assay [7], 0% with Avena fatua (AVEFA) [8], 70% in [9] and 70% in the assay with Setaria faberi (SETFA) [10].

Regarding `CCc1sc(-c2ccc(OC(F)F)cc2)nc1C1C(=O)[C@@H]2CC[C@@H](C2)C1=O` (stereo partly drawn) [Compound T44], the pest or weed control at 250 g/ha is 90% in assay [1]; 0% in assay [2]; 60% in the assay with Avena fatua (AVEFA) [3]; 100% in [4]; 100% with Setaria faberi (SETFA) [5]; 100% in assay [6]. Moreover, the pest or weed control at 250 g/ha in assay [7] is 0%; with Avena fatua (AVEFA) [8], 100%; in assay [9], 100%; in the assay with Setaria faberi (SETFA) [10], 100%.

As for `Cc1cc(-c2nc(C3C(=O)[C@@H]4CC[C@@H](C4)C3=O)c(C)s2)ccc1Cl` (stereo partly drawn) [Compound T4], the pest or weed control at 250 g/ha in assay [1] is 50%; in assay [2], 0%; in the assay on Avena fatua (AVEFA) [3], 0%; in assay [4], 60%; in the assay on Setaria faberi (SETFA) [5] it was 30%; in assay [6] it was 60%. In addition, the values for the pest or weed control at 250 g/ha (in [7]; in assay [9]; in the assay on Setaria faberi (SETFA) [10]) were 0%, 100% and 80%, respectively.

Take `O=C1C(c2cncc(Cl)c2)C(=O)[C@H]2CC[C@@H]1C2` (stereo partly drawn) [Compound T85]: the pest or weed control at 250 g/ha came to 0% in assay [1]; 30% in assay [2]; 0% with Avena fatua (AVEFA) [3]; 0% in assay [4]; 0% in the assay with Setaria faberi (SETFA) [5].

With `Cc1sc(-c2ccc(Cl)cc2)nc1C1C(=O)[C@H]2C[C@@H](C1=O)C2(C)C` (stereo partly drawn) [Compound T120], the pest or weed control at 250 g/ha was 40% in assay [6]; 0% in [7]; 60% with Avena fatua (AVEFA) [8]; 100% in assay [9]; 90% in the assay with Setaria faberi (SETFA) [10].

Take `COC(=O)c1ccc(-c2cc(C3C(=O)[C@@H]4CC[C@@H](C4)C3=O)c(C)s2)cc1` (stereo partly drawn) [Compound T25, 4-[4-(2,4-dioxobicyclo[3.2.1]oct-3-yl)-5-methylthiophen-2-yl]benzoic acid methyl ester]: the pest or weed control at 1000 g/ha was 20% in assay [6] (rate 1000 g/ha); 0% in assay [7] (rate 1000 g/ha); 0% in the assay on Avena fatua (AVEFA) [8] (rate 1000 g/ha); 10% in assay [9] (rate 1000 g/ha); 30% in the assay with Setaria faberi (SETFA) [10] (rate 1000 g/ha).
